Laboratory results reported in patent US8153678B2, “Process for preparing A 3-pyrrole substituted 2-indolinone malate salt” (Medichem, S.A., priority 2008, dated 2012).

Assay: solubility of sunitinib base (applicants' observation)
Assay type: physicochemical
Details: qualitative; dissolution in solvents for salt preparation
Excerpt: In this regard, the low solubility of sunitinib base requires large amounts of solvents or mixture of solvents and/or the use of particular harsh conditions aimed to increase the solubility of sunitinib base and/or reduce long reaction times, which represents a significant drawback, especially for industrial scale-up. Further, solid sunitinib base is difficult to handle since it is a very fine powder which is difficult to filter and isolate.

CCN(CC)CCNC(=O)c1c(C)[nH]c(/C=C2\C(=O)Nc3ccc(F)cc32)c1C [sunitinib base, N-[2-(diethylamino)ethyl]-5-[(Z)-(5-fluoro-1,2-dihydro-2-oxo-3H-indol-3-yliden)methyl]-2,4-dimethyl-1H-pyrrole-3-carboxamide]
solubility profile: low solubility profile
